Experimental data taken from ChEMBL document CHEMBL3232938, “Design, synthesis, and biological evaluation of dihydroartemisinin-fluoroquinolone conjugates as a novel type of potential antitubercular agents” (2014).
Converted amounts (≈) assume the structure as drawn.

Legend:
Format in all cases: functional
Escherichia coli [1] = experiment: Antibacterial activity against duck Escherichia coli assessed as zone of inhibition at 2 ug/ml; conditions: read-out: DIZ
[2] = test system: Mycobacterium tuberculosis; experiment: Antibacterial activity against 0.5 ug/ml Mycobacterium tuberculosis H37Rv ATCC 27294 assessed as growth inhibition after 7 days by microtiter plate assay; conditions: H37Rv ATCC 27294, 168 h
[3] = test system: Mycobacterium tuberculosis; experiment: Antibacterial activity against 1 ug/ml Mycobacterium tuberculosis H37Rv ATCC 27294 assessed as growth inhibition after 7 days by microtiter plate assay; conditions: H37Rv ATCC 27294, 168 h
Salmonella [4] = experiment: Antibacterial activity against Salmonella assessed as growth inhibition after 7 days by microtiter plate assay; conditions: 168 h
Pseudomonas aeruginosa [5] = experiment: Antibacterial activity against Pseudomonas aeruginosa assessed as growth inhibition after 7 days by microtiter plate assay; conditions: 168 h
Escherichia coli [6] = experiment: Antibacterial activity against duck Escherichia coli assessed as growth inhibition after 7 days by microtiter plate assay; conditions: 168 h
Escherichia coli [7] = experiment: Antibacterial activity against Escherichia coli assessed as growth inhibition after 7 days by microtiter plate assay; conditions: 168 h
Escherichia coli [8] = experiment: Antibacterial activity against Escherichia coli assessed as zone of inhibition at 2 ug/ml; conditions: read-out: DIZ
Pseudomonas aeruginosa [9] = experiment: Antibacterial activity against Pseudomonas aeruginosa assessed as zone of inhibition at 2 ug/ml; conditions: read-out: DIZ
Salmonella [10] = experiment: Antibacterial activity against Salmonella assessed as zone of inhibition at 2 ug/ml; conditions: read-out: DIZ
Staphylococcus aureus [11] = experiment: Antibacterial activity against Staphylococcus aureus assessed as growth inhibition after 7 days by microtiter plate assay; conditions: 168 h
Staphylococcus aureus [12] = experiment: Antibacterial activity against Staphylococcus aureus assessed as zone of inhibition at 2 ug/ml; conditions: read-out: DIZ
[13] = test system: Mycobacterium tuberculosis; experiment: Antibacterial activity against drug-sensitive 1 ug/ml Mycobacterium tuberculosis clinical isolate 758 assessed as growth inhibition after 7 days by microtiter plate assay; conditions: isolate 758, 168 h
[14] = test system: Mycobacterium tuberculosis; experiment: Antibacterial activity against drug-sensitive 1 ug/ml Mycobacterium tuberculosis clinical isolate 821 assessed as growth inhibition after 7 days by microtiter plate assay; conditions: isolate 821, 168 h
[15] = test system: Mycobacterium tuberculosis; experiment: Antibacterial activity against drug-sensitive 1 ug/ml Mycobacterium tuberculosis clinical isolate 753 assessed as growth inhibition after 7 days by microtiter plate assay; conditions: isolate 753, 168 h
[16] = test system: Mycobacterium tuberculosis; experiment: Antibacterial activity against drug-sensitive 1 ug/ml Mycobacterium tuberculosis clinical isolate 760 assessed as growth inhibition after 7 days by microtiter plate assay; conditions: isolate 760, 168 h
[17] = test system: Mycobacterium tuberculosis; experiment: Antibacterial activity against drug-sensitive 1 ug/ml Mycobacterium tuberculosis clinical isolate 741 assessed as growth inhibition after 7 days by microtiter plate assay; conditions: isolate 741, 168 h
[18] = test system: Mycobacterium tuberculosis; experiment: Antibacterial activity against Mycobacterium tuberculosis H37Rv ATCC 27294 assessed as growth inhibition after 7 days by microtiter plate assay; conditions: H37Rv ATCC 27294, 168 h

Structure (SMILES) | zone of inhibition at 2 µg/mL (Escherichia coli [1]) [mm] | MIC [2] [µM] | MIC [3] [µM] | MIC (Salmonella [4]) [µg/mL] | MIC (Pseudomonas aeruginosa [5]) [µg/mL] | MIC (Escherichia coli [6]) [µg/mL] | MIC (Escherichia coli [7]) [µg/mL] | zone of inhibition at 2 µg/mL (Escherichia coli [8]) [mm] | zone of inhibition at 2 µg/mL (Pseudomonas aeruginosa [9]) [mm] | zone of inhibition at 2 µg/mL (Salmonella [10]) [mm] | MIC (Staphylococcus aureus [11]) [µg/mL] | zone of inhibition at 2 µg/mL (Staphylococcus aureus [12]) [mm] | MIC [13] [µg/mL] | MIC [14] [µg/mL] | MIC [15] [µg/mL] | MIC [16] [µg/mL] | MIC [17] [µg/mL] | MIC [18] [µM]
C[C@H]1[C@@H](OCCN2CCN(c3cc4c(cc3F)c(=O)c(C(=O)O)cn4C3CC3)CC2)O[C@@H]2O[C@@]3(C)CC[C@H]4[C@H](C)CC[C@@H]1[C@@]24OO3 | < 5 | > 6.23 | > 6.23 | 16 (≈ 24.9 µM) | 16 (≈ 24.9 µM) | 8 (≈ 12.5 µM) | 16 (≈ 24.9 µM) | < 5 | < 5 | < 5 | 8 (≈ 12.5 µM) | < 5 |  |  |  |  |  | 
CCn1cc(C(=O)O)c(=O)c2cc(F)c(N3CCN(CCO[C@H]4O[C@@H]5O[C@@]6(C)CC[C@H]7[C@H](C)CC[C@@H]([C@H]4C)[C@@]57OO6)CC3)cc21 | < 5 | > 3.18 | > 3.18 | 16 (≈ 25.4 µM) | 16 (≈ 25.4 µM) | 16 (≈ 25.4 µM) | 16 (≈ 25.4 µM) | < 5 | < 5 | < 5 | 8 (≈ 12.7 µM) | < 5 |  |  |  |  |  | 
C[C@H]1[C@@H](OCCNC2CCN(c3c(F)cc4c(=O)c(C(=O)O)cn(C5CC5)c4c3Cl)C2)O[C@@H]2O[C@@]3(C)CC[C@H]4[C@H](C)CC[C@@H]1[C@@]24OO3 (stereo not given in full) | 7 | 0.092 (≈ 0.0622 µg/mL) | 0.185 (≈ 0.125 µg/mL) | 16 (≈ 23.7 µM) | 16 (≈ 23.7 µM) | 16 (≈ 23.7 µM) | 8 (≈ 11.8 µM) | 8 | < 5 | 12 | 16 (≈ 23.7 µM) | < 5 | 0.125 (≈ 0.185 µM) | 0.25 (≈ 0.37 µM) | 0.125 (≈ 0.185 µM) | 0.125 (≈ 0.185 µM) | 0.125 (≈ 0.185 µM) | 
NC1CCN(c2c(F)cc3c(=O)c(C(=O)O)cn(C4CC4)c3c2Cl)C1 (stereo not given) [CLINAFLOXACIN] | 43 |  |  | 4 (≈ 10.9 µM) | 0.5 (≈ 1.37 µM) | 4 (≈ 10.9 µM) | 0.25 (≈ 0.683 µM) | 25 | 32 | 28 | 2 (≈ 5.47 µM) | 21 | 0.25 (≈ 0.683 µM) | 1 (≈ 2.73 µM) | 0.5 (≈ 1.37 µM) | 0.25 (≈ 0.683 µM) | 1 (≈ 2.73 µM) | 0.43 (≈ 0.157 µg/mL)
C[C@H]1[C@@H](OCCCN2CCN(c3cc4c(cc3F)c(=O)c(C(=O)O)cn4C3CC3)CC2)O[C@@H]2O[C@@]3(C)CC[C@H]4[C@H](C)CC[C@@H]1[C@@]24OO3 | < 5 | > 3.05 | > 3.05 | 16 (≈ 24.4 µM) | 16 (≈ 24.4 µM) | 16 (≈ 24.4 µM) | 16 (≈ 24.4 µM) | < 5 | < 5 | < 5 | 8 (≈ 12.2 µM) | < 5 |  |  |  |  |  | 
CCn1cc(C(=O)O)c(=O)c2cc(F)c(N3CCNCC3)cc21 [NORFLOXACIN] | 33 |  |  | 16 (≈ 50.1 µM) | 2 (≈ 6.26 µM) | 4 (≈ 12.5 µM) | 2 (≈ 6.26 µM) | 18 | 16 | 17 | 16 (≈ 50.1 µM) | < 5 | 4 (≈ 12.5 µM) | 4 (≈ 12.5 µM) | 4 (≈ 12.5 µM) | 4 (≈ 12.5 µM) | 8 (≈ 25.1 µM) | 6.26 (≈ 2 µg/mL)
CC1COc2c(N3CCN(C)CC3)c(F)cc3c(=O)c(C(=O)O)cn1c23 (stereo not given) [OFLOXACIN] |  | 0.69 (≈ 0.249 µg/mL) | 0.69 (≈ 0.249 µg/mL) |  |  |  |  |  |  |  |  |  |  |  |  |  |  | 
C[C@H]1[C@@H](OCCCNC2CCN(c3c(F)cc4c(=O)c(C(=O)O)cn(C5CC5)c4c3Cl)C2)O[C@@H]2O[C@@]3(C)CC[C@H]4[C@H](C)CC[C@@H]1[C@@]24OO3 (stereo not given in full) | < 5 | 0.181 (≈ 0.125 µg/mL) | 0.181 (≈ 0.125 µg/mL) | 16 (≈ 23.2 µM) | 8 (≈ 11.6 µM) | 8 (≈ 11.6 µM) | 8 (≈ 11.6 µM) | 7 | < 5 | 10 | 16 (≈ 23.2 µM) | < 5 | 0.125 (≈ 0.181 µM) | 1 (≈ 1.45 µM) | 0.125 (≈ 0.181 µM) | 0.125 (≈ 0.181 µM) | 0.125 (≈ 0.181 µM) | 
C[C@H]1[C@@H](O)O[C@@H]2O[C@@]3(C)CC[C@H]4[C@H](C)CC[C@@H]1[C@@]24OO3 [ARTENIMOL] | < 5 |  |  | 16 (≈ 56.3 µM) | 16 (≈ 56.3 µM) | 4 (≈ 14.1 µM) | 16 (≈ 56.3 µM) | < 5 | < 5 | < 5 | 16 (≈ 56.3 µM) | < 5 | > 16 | > 16 | > 16 | > 16 | > 16 | > 56
C[C@H]1[C@@H](OC(=O)CCC(=O)N2CCN(c3cc4c(cc3F)c(=O)c(C(=O)O)cn4-c3ccc(F)cc3)CC2)O[C@@H]2O[C@@]3(C)CC[C@H]4[C@H](C)CC[C@@H]1[C@@]24OO3 | < 5 | > 5.32 | > 5.32 | 16 (≈ 21.3 µM) | 16 (≈ 21.3 µM) | 8 (≈ 10.6 µM) | 16 (≈ 21.3 µM) | < 5 | < 5 | < 5 | 8 (≈ 10.6 µM) | < 5 |  |  |  |  |  | 
C[C@H]1[C@@H](OC(=O)CCC(=O)N2CCN(c3cc4c(cc3F)c(=O)c(C(=O)O)cn4C3CC3)CC2)O[C@@H]2O[C@@]3(C)CC[C@H]4[C@H](C)CC[C@@H]1[C@@]24OO3 | < 5 | 2.07 (≈ 1.44 µg/mL) | 2.07 (≈ 1.44 µg/mL) | 16 (≈ 22.9 µM) | 16 (≈ 22.9 µM) | 16 (≈ 22.9 µM) | 16 (≈ 22.9 µM) | 9 | < 5 | < 5 | 16 (≈ 22.9 µM) | < 5 |  |  |  |  |  | 
CCn1cc(C(=O)O)c(=O)c2cc(F)c(N3CCN(C(=O)CCC(=O)O[C@H]4O[C@@H]5O[C@@]6(C)CC[C@H]7[C@H](C)CC[C@@H]([C@H]4C)[C@@]57OO6)CC3)cc21 | < 5 | > 5.83 | > 5.83 | 16 (≈ 23.3 µM) | 16 (≈ 23.3 µM) | 16 (≈ 23.3 µM) | 16 (≈ 23.3 µM) | 6 | < 5 | < 5 | 16 (≈ 23.3 µM) | < 5 |  |  |  |  |  | 
C[C@H]1[C@@H](OCCN2CCN(c3cc4c(cc3F)c(=O)c(C(=O)O)cn4-c3ccc(F)cc3)CC2)O[C@@H]2O[C@@]3(C)CC[C@H]4[C@H](C)CC[C@@H]1[C@@]24OO3 | < 5 | > 2.87 | > 2.87 | 16 (≈ 23 µM) | 16 (≈ 23 µM) | 8 (≈ 11.5 µM) | 16 (≈ 23 µM) | < 5 | < 5 | < 5 | 16 (≈ 23 µM) | < 5 |  |  |  |  |  | 
O=C(O)c1cn(C2CC2)c2cc(N3CCNCC3)c(F)cc2c1=O [CIPROFLOXACIN] | 42 |  |  |  |  |  |  |  | 18 | 24 | 8 (≈ 24.1 µM) | 9 |  |  |  |  |  | 0.75 (≈ 0.249 µg/mL)
CCn1cc(C(=O)O)c(=O)c2cc(F)c(N3CCN(CCCO[C@H]4O[C@@H]5O[C@@]6(C)CC[C@H]7[C@H](C)CC[C@@H]([C@H]4C)[C@@]57OO6)CC3)cc21 | < 5 | 6.21 (≈ 4 µg/mL) | 6.21 (≈ 4 µg/mL) | 16 (≈ 24.9 µM) | 16 (≈ 24.9 µM) | 8 (≈ 12.4 µM) | 16 (≈ 24.9 µM) | < 5 | < 5 | < 5 | 8 (≈ 12.4 µM) | < 5 |  |  |  |  |  | 
C[C@H]1[C@@H](OCCCN2CCN(c3cc4c(cc3F)c(=O)c(C(=O)O)cn4-c3ccc(F)cc3)CC2)O[C@@H]2O[C@@]3(C)CC[C@H]4[C@H](C)CC[C@@H]1[C@@]24OO3 | < 5 | > 5.64 | > 5.64 | 16 (≈ 22.5 µM) | 16 (≈ 22.5 µM) | 4 (≈ 5.64 µM) | 16 (≈ 22.5 µM) | < 5 | < 5 | 10 | 16 (≈ 22.5 µM) | < 5 |  |  |  |  |  | 
C[C@H]1[C@@H](OC(=O)CCC(=O)NC2CCN(c3c(F)cc4c(=O)c(C(=O)O)cn(C5CC5)c4c3Cl)C2)O[C@@H]2O[C@@]3(C)CC[C@H]4[C@H](C)CC[C@@H]1[C@@]24OO3 (stereo not given in full) | < 5 | 1.37 (≈ 1 µg/mL) | 2.73 (≈ 2 µg/mL) | 16 (≈ 21.9 µM) | 16 (≈ 21.9 µM) | 16 (≈ 21.9 µM) | 8 (≈ 10.9 µM) | 9 | < 5 | 10 | 8 (≈ 10.9 µM) | < 5 |  |  |  |  |  | 
